Results: ChEMBL document CHEMBL1133963, “Furans with basic side chains: synthesis and biological evaluation of a novel series of antagonists with selectivity for the estrogen receptor alpha” (Bioorg Med Chem Lett, 2001)

Experiments:
Estrogen receptor beta [1] = target: T1, Estrogen receptor beta (Homo sapiens, UniProt Q92731); assay: Inhibitory activity against Estrogen receptor beta
Estrogen receptor beta [2] = target: T1, Estrogen receptor beta; assay: Displacement of [3H]estradiol from Estrogen receptor beta
Estrogen receptor [3] = target: T2, Estrogen receptor (Homo sapiens, UniProt P03372); assay: Inhibitory activity against Estrogen receptor alpha
T2 sequence (P03372 whole entry): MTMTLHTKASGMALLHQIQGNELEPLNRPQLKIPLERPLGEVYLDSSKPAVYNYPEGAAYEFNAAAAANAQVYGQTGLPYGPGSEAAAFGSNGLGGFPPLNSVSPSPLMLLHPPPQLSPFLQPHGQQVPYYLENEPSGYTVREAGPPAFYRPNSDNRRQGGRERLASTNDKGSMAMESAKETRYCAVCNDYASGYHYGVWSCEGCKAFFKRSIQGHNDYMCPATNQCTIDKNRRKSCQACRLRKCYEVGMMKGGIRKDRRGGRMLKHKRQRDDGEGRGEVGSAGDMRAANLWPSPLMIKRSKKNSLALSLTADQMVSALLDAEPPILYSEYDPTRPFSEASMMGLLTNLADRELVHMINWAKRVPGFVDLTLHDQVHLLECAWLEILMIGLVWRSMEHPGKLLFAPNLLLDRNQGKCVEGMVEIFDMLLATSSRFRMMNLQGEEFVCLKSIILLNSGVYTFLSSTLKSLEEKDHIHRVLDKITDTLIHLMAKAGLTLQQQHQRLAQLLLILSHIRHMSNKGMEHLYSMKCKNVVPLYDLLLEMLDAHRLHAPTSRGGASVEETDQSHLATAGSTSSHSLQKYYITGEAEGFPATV

Estrogen receptor [4] = target: T2, Estrogen receptor; assay: Displacement of [3H]estradiol from Estrogen receptor alpha

T1 sequence (Q92731 whole entry): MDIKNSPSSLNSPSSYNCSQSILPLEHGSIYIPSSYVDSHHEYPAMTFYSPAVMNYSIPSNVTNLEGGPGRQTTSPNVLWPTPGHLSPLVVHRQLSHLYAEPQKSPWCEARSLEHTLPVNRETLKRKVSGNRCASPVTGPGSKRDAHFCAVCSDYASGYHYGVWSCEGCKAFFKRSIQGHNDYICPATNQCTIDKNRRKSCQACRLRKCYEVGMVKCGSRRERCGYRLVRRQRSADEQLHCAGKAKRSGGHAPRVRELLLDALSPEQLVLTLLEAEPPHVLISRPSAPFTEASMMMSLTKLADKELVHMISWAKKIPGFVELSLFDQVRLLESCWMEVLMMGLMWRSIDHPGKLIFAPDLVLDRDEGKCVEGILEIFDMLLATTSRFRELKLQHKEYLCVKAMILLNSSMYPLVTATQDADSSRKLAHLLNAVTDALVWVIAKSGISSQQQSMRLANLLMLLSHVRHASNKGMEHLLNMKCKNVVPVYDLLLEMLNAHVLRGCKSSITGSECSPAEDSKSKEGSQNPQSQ

IC50 (Estrogen receptor beta [1]) [nM]	RBA (Estrogen receptor beta [2]) [%]	IC50 (Estrogen receptor [3]) [nM]	RBA (Estrogen receptor [4]) [%]	SMILES
480	3.1	65	75	CCc1c(-c2ccc(O)cc2)oc(-c2ccc(O)cc2)c1-c1ccc(OCCN2CCCCC2)cc1
	0.06		0.36	CCc1c(-c2ccc(OCCN3CCCCC3)cc2)oc(-c2ccc(O)cc2)c1-c1ccc(O)cc1
	4		34	CCCc1c(-c2ccc(O)cc2)oc(-c2ccc(O)cc2)c1-c1ccc(OCCN2CCCCC2)cc1

Continued, molecule first:

SMILES	IC50 (Estrogen receptor beta [1]) [nM]	RBA (Estrogen receptor beta [2]) [%]	IC50 (Estrogen receptor [3]) [nM]	RBA (Estrogen receptor [4]) [%]
CCc1c(-c2ccc(O)cc2)oc(-c2ccc(O)cc2)c1-c1ccc(OC)cc1		0.91		2.5
CCc1c(-c2ccc(O)cc2)oc(-c2ccccc2)c1-c1ccc(OCCN2CCCCC2)cc1		0.43		3.8
Cc1c(-c2ccc(O)cc2)oc(-c2ccc(O)cc2)c1-c1ccc(OCCN2CCCCC2)cc1		0.47		32
CCc1c(-c2ccccc2)oc(-c2ccc(O)cc2)c1-c1ccc(OCCN2CCCCC2)cc1		20		60
